What was measured:
MIF [1] = target: T1, MIF (Homo sapiens, UniProt P14174); experiment: MST assay, binding affinity to MIF; conditions: mean ± SD
T1 construct: purchased Abcam ab51096
T1 sequence (P14174 2-115 limits assumed): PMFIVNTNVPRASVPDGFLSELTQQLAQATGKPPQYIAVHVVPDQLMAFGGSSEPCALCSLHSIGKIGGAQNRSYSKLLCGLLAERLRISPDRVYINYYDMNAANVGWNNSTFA
Procedure: (§1) All chemicals were purchased from commercial suppliers without additional purification required. […] The high-performance liquid chromatography (HPLC) spectra data for each compound were provided in the Supplementary Materials (Figures S2.1–2.6). RAW 264.7 murine macrophages were purchased from the American Type Culture Collection (ATCC, TIB-71). 10% foetal bovine serum (FBS), 100 units/mL of penicillin, and 100 µg/mL of streptomycin were added to the Dulbecco’s modified Eagle’s medium (DMEM). The FBS, penicillin, streptomycin, and DMEM were purchased from Gibco (Grand Island, NY, USA). The cells were cultured in the incubator that was humidified with 5% CO2 and 95% air at 37 °C. The human recombinant MIF was purchased from Abcam (Cambridge, MA, USA) and catalogue number was ab51096.
The MST assay was used to measure the Kd value, aiming to assess the binding affinity between small molecules and targeted proteins in the field of drug discovery. […] The degree of labelling (DOL) of the MIF protein was calculated. The ideal DOL was in the range of 0.5–1. The Monolith™ RED-NHS second-generation protein labelling kit (NanoTemper Technologies) was used for the fluorescent labelling of MIF protein. We strictly followed the instructions of the kit for the experiment. The PBST (Phosphate-Buffered Saline with Tween) solution containing 0.05% Tween 20 was configured. The ligand was diluted into 16 concentration gradients using the semi-dilution method. The fluorescently labelled protein was added and thoroughly mixed, then incubated for 5 min in the dark. The solution was taken by capillary tube and assayed with the Monolith NT.115 instrument (NanoTemper Technologies). Subsequently, the difference was recorded in fluorescence intensity. The fluorescence intensity was plotted against the concentration of the hit compounds to generate a fluorescence dose curve, following which the Kd value was calculated.

MIF [2] = test system: MIF; set-up: method as in PMID 34153665, PMID 33823428; conditions: cited from earlier work
RAW 264.7 macrophages = experiment: RT-qPCR of LPS-induced proinflammatory gene expression; type: cell-based, murine; conditions: mRNA, LPS 200 ng/mL 6 h, then 300 nM compound 30 min
Source text: All chemicals were purchased from commercial suppliers without additional purification required. […] Hits 1–6 compounds were obtained from WuXi AppTec (Shanghai, China) with a purity exceeding 98%. The high-performance liquid chromatography (HPLC) spectra data for each compound were provided in the Supplementary Materials (Figures S2.1–2.6). RAW 264.7 murine macrophages were purchased from the American Type Culture Collection (ATCC, TIB-71). 10% foetal bovine serum (FBS), 100 units/mL of penicillin, and 100 µg/mL of streptomycin were added to the Dulbecco’s modified Eagle’s medium (DMEM). The FBS, penicillin, streptomycin, and DMEM were purchased from Gibco (Grand Island, NY, USA). The cells were cultured in the incubator that was humidified with 5% CO2 and 95% air at 37 °C. The human recombinant MIF was purchased from Abcam (Cambridge, MA, USA) and catalogue number was ab51096. This experiment was carried out in accordance with the relevant literature. […] RAW 264.7 macrophages were subjected to treatment with LPS at a concentration of 200 ng/mL for 6 h. […] The Trizol method was used to extract the total ribonucleic acid (RNA) from the cells. The RNA reverse transcription kit (Invitrogen) was used to synthesise complementary deoxyribonucleic acid (cDNA) according to the manufacturer’s instructions. The SYRB Green qPCR kit and the primers were used for amplification. Thereafter, to standardise the data, the expression levels of the target genes were normalised to GAPDH and calculated by using the 2^−ΔΔCT method. The expression data were presented in the format of fold-change for clear visualisation.

MIF-CD74 binding = target: T2, MIF-CD74 binding (Homo sapiens, UniProt P14174); experiment: Pull down assay of GST-MIF with CD74; conditions: 40 nM biotin-Hit-1; 100 nM and 200 nM CD74; western blot
T2 sequence (P14174 1-115): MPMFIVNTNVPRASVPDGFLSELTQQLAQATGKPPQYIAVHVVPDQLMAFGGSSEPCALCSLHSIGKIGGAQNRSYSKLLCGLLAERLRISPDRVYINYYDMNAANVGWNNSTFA
Procedure: The pull down experiment was executed as described previously[36] and in line with defined standard principles. The pre-washed beads with purified GST-MIF were incubated for 2 h at 4 °C. The sample was centrifuged at 10 000 rpm and the purified protein was transferred to a new Eppendorf (EP) tube to remove non-specifically bound background proteins. The 40 nM of biotin-Hit-1 was added to the purified protein for incubation. […] The beads were washed five times with PBST. The proteins were denatured at 100 °C for 5 min. The protein bands were isolated and segregated via sodium dodecyl sulphate-polyacrylamide gel electrophoresis (SDS-PAGE) technique. The polyvinylidene fluoride (PVDF) membrane was pre-soaked in methanol. The protein bands were transferred onto the PVDF membrane under the condition of 200 mA. The membrane was blocked by incubating it with 3% bovine serum albumin (BSA) in PBS at 37 °C for 2 h. After every incubation period ended, the membrane was washed three times successively with PBST, with each washing step taking 10 min. Subsequently, the membrane was subjected to incubating with the primary antibody on a shaker overnight at 4 °C. […] Thereafter, the light signal was detected by a sophisticated detection system. Employing the Image J software, the intensity of the bands was quantified.

MIF [3] = target: T1, MIF; experiment: ITC assay, binding affinity to MIF; conditions: 25 °C, pH 7.5, mean ± SD
Procedure: as §1

`Cc1nn(-c2ccccc2)nc1-c1nnc(-c2ccccc2)o1` [Hit-5] showed a Kd (MIF [1]) of 810 ± 40 nM.
With `Cc1nn(-c2ccccc2)nc1-c1nnc(-c2ccc(Cl)cc2)o1` [Hit-4] the Kd (MIF [1]) was 750 ± 60 nM.
For `COC(=O)CC1CC(c2ccc(O)cc2)=NO1` (centres unmarked) [ISO-1], the “Release of pro-inflammatory factors induced by LPS (TNF-α, IL-6, IL-1β)” value (MIF [2]) is listed as “suppress the release”.
In the case of `CCc1ccn2cc(-c3cc(-c4ccccc4)no3)nc2c1` [Hit-1], the “Reduction of TNF-α level compared with the LPS group” value (RAW 264.7 macrophages) is reported as 3.7 fold, the “Inhibitory effect on the IL-1β” value (RAW 264.7 macrophages; compared with compound 3a) is reported as “distinctly stronger inhibitory effect” and the “Inhibitory effect on the IL-6 level” value (RAW 264.7 macrophages; compared with compound 3a) is reported as “markedly stronger inhibitory effect”. For the same compound, the Kd (MIF [1]) was 290 ± 10 nM, the “Effect on MIF interaction with CD74” value (MIF-CD74 binding) was “potently suppressed” and the Kd (MIF [3]) was 320 ± 10 nM.
Compound `Cc1ccn2cc(-c3cc(-c4ccccc4)no3)nc2c1` [Hit-2] has a Kd (MIF [1]) of 460 ± 30 nM.
Work on `Cc1nn(-c2ccccc2)nc1-c1nnc(-c2ccc(C(F)(F)F)cc2)o1` [Hit-6] yielded a Kd (MIF [1]) of 720 ± 50 nM.
In the case of `Oc1ccc(-n2cc(-c3ccc4ccccc4n3)nn2)cc1` [Hit 3a, reference compound], the “Reduction of TNF-α level compared with the LPS group” value (RAW 264.7 macrophages) is reported as 2.2 fold.
For `c1ccc(-c2cc(-c3cn4cccnc4n3)on2)cc1` [Hit-3], the Kd (MIF [1]) was 540 ± 20 nM.
In the case of `COc1ccc(-c2cc(C)nc(SCc3cccc(C(=O)O)c3)n2)cc1` [Hit Z-312, 3-({[4-(4-methoxyphenyl)-6-methyl-2-pyrimidinyl]thio}1methyl)benzoic acid], the “Release of pro-inflammatory factors induced by LPS (TNF-α, IL-6, IL-1β)” value (MIF [2]) is given as “suppress the release”.

— article PMC12172083, “Identification of a novel and high affinity MIF inhibitor via structure-based pharmacophore modelling, molecular docking, molecular dynamics simulations, and biological evaluation” (Journal of Enzyme Inhibition and Medicinal Chemistry, 2025)
